Key:
[1] = tested on: Lactobacillus casei shirota; test: Lactobacillus casei shirota viable plate counts after SGF treatment with or without colostrum; conditions: L. casei shirota, no colostrum
Lactobacillus plantarum [2] = tested on: Lactobacillus plantarum; design: species or system mice; conditions: mouse, in vivo
Lactobacillus plantarum [3] = tested on: Lactobacillus plantarum

Lactobacillus casei shirota [Lactobacillus + H2O]
reduction in Lactobacillus viability [1]: ≥ 10,000 fold

O=C([O-])O.[Na+] [sodium bicarbonate, Sodium bicarbonate]
survival of Lactobacillus plantarum (large intestine, FIG. 7) (Lactobacillus plantarum [2]): increased | survival of Lactobacillus plantarum at higher concentrations of protectant (Lactobacillus plantarum [2]): increased survival

Lactobacillus plantarum [Lactobacillus + H2O]
reduction in Lactobacillus viability (Lactobacillus plantarum [3]): 1000 fold

Reference: patent US20050175597A1 (priority 2002, published 2005)
